Assay results taken from patent US8658568B2, “6-amino-2-substituted-5-vinylsilylpyrimidine-4-carboxylic acids and esters and 4-amino-6-substituted-3-vinylsilylpyridine-2-carboxylic acids and esters as herbicides” (Dow AgroSciences, LLC., priority 2011, dated 2014).

Assays:
Assay type in all cases: in vivo
[1] = tested on: CHEAL = lambsquarters (Chenopodium album); test: Postemergence herbicidal activity, lambsquarters; settings: post-emergence, 336 h, post-emergent, visual score after 14 days (0 no injury, 100 complete kill), read-out: % Growth Reduction CHEAL; for pest or weed control at 280 g/ha: rate 280 g ai/ha; for pest or weed control at 140 g/ha: rate 140 g ai/ha
Experimental: (§1) Evaluation of Postemergence Herbicidal Activity
(§2) Seeds or nutlets of the desired test plant species were planted in Sun Gro MetroMix® 306 planting mixture, which typically has a pH of 6.0 to 6.8 and an organic matter content of about 30 percent, in plastic pots with a surface area of 64 square centimeters. When required to ensure good germination and healthy plants, a fungicide treatment and/or other chemical or physical treatment was applied. The plants were grown for 7-21 days in a greenhouse with an approximate 15 hour photoperiod which was maintained at about 23-29° C. during the day and 22-28° C. during the night. Nutrients and water were added on a regular basis and supplemental lighting was provided with overhead metal halide 1000-Watt lamps as necessary. The plants were employed for testing when they reached the first or second true leaf stage.
(§3) A weighed amount, determined by the highest rate to be tested, of each test compound was placed in a 25 mL glass vial and was dissolved in 4 mL of a 97:3 v/v (volume/volume) mixture of acetone and dimethyl sulfoxide (DMSO) to obtain concentrated stock solutions. […] The concentrated stock solutions obtained were diluted with 20 mL of an aqueous mixture containing acetone, water, isopropyl alcohol, DMSO, Atplus 411F crop oil concentrate, and Triton® X-155 surfactant in a 48.5:39:10:1.5:1.0:0.02 v/v ratio to obtain spray solutions containing the highest application rates. Additional application rates were obtained by serial dilution of 12 mL of the high rate solution into a solution containing 2 mL of 97:3 (v/v) mixture of acetone and dimethyl sulfoxide (DMSO) and 10 mL of an aqueous mixture containing acetone, water, isopropyl alcohol, DMSO, Atplus 411F crop oil concentrate, and Triton X-155 surfactant in a 48.5:39:10:1.5:1.0:0.02 (v/v) ratio to obtain 1/2 ×, 1/4 ×, 1/8× and 1/16× rates of the high rate. Compound requirements are based upon a 12 mL application volume at a rate of 187 L/ha. Formulated compounds were applied to the plant material with an overhead Mandel track sprayer equipped with a 8002E nozzles calibrated to deliver 187 L/ha over an application area of 0.503 square meters at a spray height of 18 inches (43 cm) above the average plant canopy height. Control plants were sprayed in the same manner with the solvent blank.
(§4) The treated plants and control plants were placed in a greenhouse as described above and watered by sub-irrigation to prevent wash-off of the test compounds. After 14 days, the condition of the test plants as compared with that of the untreated plants was determined visually and scored on a scale of 0 to 100 percent where 0 corresponds to no injury and 100 corresponds to complete kill
(§5) By applying the well-accepted probit analysis as described by J. Berkson in Journal of the […], 48, 565 (1953) and by D. Finney in “Probit Analysis” Cambridge University Press (1952), the above data can be used to calculate GR50 and GR80 values, which are defined as growth reduction factors that correspond to the effective dose of herbicide required to kill or control 50 percent or 80 percent, respectively, of a target plant.

[2] = tested on: ECHCG = barnyardgrass (Echinochloa crus-galli); test: Postemergence herbicidal activity, barnyardgrass; settings: post-emergence, 336 h, post-emergent, visual score after 14 days (0 no injury, 100 complete kill), read-out: % Growth Reduction ECHCG; for pest or weed control at 280 g/ha: rate 280 g ai/ha; for pest or weed control at 140 g/ha: rate 140 g ai/ha
Experimental: as §1, §2, §3, §4, §5

[3] = tested on: EPHHL = wild poinsettia (Euphorbia heterophylla); test: Postemergence herbicidal activity, wild poinsettia; settings: post-emergence, 336 h, post-emergent, visual score after 14 days (0 no injury, 100 complete kill), read-out: % Growth Reduction EPHHL; for pest or weed control at 280 g/ha: rate 280 g ai/ha; for pest or weed control at 140 g/ha: rate 140 g ai/ha
Experimental: as §1, §2, §3, §4, §5

[4] = tested on: IPOHE = ivyleaf morningglory (Ipomoea hederacea); test: Postemergence herbicidal activity, ivyleaf morningglory; settings: post-emergence, 336 h, post-emergent, visual score after 14 days (0 no injury, 100 complete kill), read-out: % Growth Reduction IPOHE; for pest or weed control at 280 g/ha: rate 280 g ai/ha; for pest or weed control at 140 g/ha: rate 140 g ai/ha
Experimental: as §1, §2, §3, §4, §5

[5] = tested on: ABUTH = velvetleaf (Abutilon theophrasti); test: Postemergence herbicidal activity, velvetleaf; settings: post-emergence, 336 h, post-emergent, visual score after 14 days (0 no injury, 100 complete kill), read-out: % Growth Reduction ABUTH; for pest or weed control at 280 g/ha: rate 280 g ai/ha; for pest or weed control at 140 g/ha: rate 140 g ai/ha
Experimental: as §1, §2, §3, §4, §5

[6] = tested on: HELAN = sunflower (Helianthus annuus); test: Postemergence herbicidal activity, sunflower; settings: post-emergence, 336 h, post-emergent, visual score after 14 days (0 no injury, 100 complete kill), read-out: % Growth Reduction HELAN; for pest or weed control at 280 g/ha: rate 280 g ai/ha; for pest or weed control at 140 g/ha: rate 140 g ai/ha
Experimental: as §1, §2, §3, §4, §5

[7] = tested on: AMARE = redroot pigweed (Amaranthus retroflexus); test: Postemergence herbicidal activity, redroot pigweed; settings: post-emergence, 336 h, post-emergent, rate 140 g ai/ha, visual score after 14 days (0 no injury, 100 complete kill), read-out: % Growth Reduction AMARE
Experimental: as §1, §2, §3, §4, §5

Structure (SMILES) | pest or weed control at 280 g/ha [1] [%] | pest or weed control at 280 g/ha [2] [%] | pest or weed control at 280 g/ha [3] [%] | pest or weed control at 280 g/ha [4] [%] | pest or weed control at 280 g/ha [5] [%] | pest or weed control at 280 g/ha [6] [%] | pest or weed control at 140 g/ha [1] [%] | pest or weed control at 140 g/ha [2] [%] | pest or weed control at 140 g/ha [3] [%] | pest or weed control at 140 g/ha [4] [%] | pest or weed control at 140 g/ha [5] [%] | pest or weed control at 140 g/ha [6] [%] | pest or weed control at 140 g/ha [7] [%]
C[Si](C)(C)/C=C/c1c(N)nc(C2CC2)nc1C(=O)O [Compound 8, (E)-6-amino-2-cyclopropyl-5-(2-(trimethylsilyl)vinyl)pyrimidine-4-carboxylic acid] | 65 | 0 | 100 | 78 | 0 | 65 |  |  |  |  |  |  | 
CCO[Si](/C=C/c1c(N)nc(-c2ccc(Cl)c(OC)c2F)nc1C(=O)OC)(OCC)OCC [Compound 9, (E)-methyl 6-amino-2-(4-chloro-2-fluoro-3-methoxyphenyl)-5-(2-(triethoxysilyl)vinyl)pyrimidine-4-carboxylate] |  |  |  |  |  |  | 100 | 80 | 100 | 80 | 100 | 90 | 
COc1c(Cl)ccc(-c2nc(N)c(/C=C/[Si](O)(O)O)c(C(=O)O)n2)c1F [Compound 10, (E)-6-amino-2-(4-chloro-2-fluoro-3-methoxyphenyl)-5-(2-(trihydroxysilyl)vinyl)pyrimidine-4-carboxylic acid] |  |  |  |  |  |  | 100 | 80 | 100 | 80 | 100 | 100 | 
COC(=O)c1nc(-c2ccc(Cl)c(F)c2)c(F)c(N)c1/C=C/[Si](C)(C)C [Compound 11, (E)-methyl 4-amino-6-(4-chloro-3-fluorophenyl)-5-fluoro-3-(2-(trimethylsilyl)vinyl)picolinate] |  |  |  |  |  |  | 100 | 0 | 80 | 70 | 80 | 90 | 100
C[Si](C)(C)/C=C/c1c(C(=O)O)nc(-c2ccc(Cl)c(F)c2)c(F)c1N [Compound 14, (E)-4-amino-6-(4-chloro-3-fluorophenyl)-5-fluoro-3-(2-(trimethylsilyl)vinyl)picolinic acid] |  |  |  |  |  |  | 100 | 70 | 100 | 80 | 65 | 80 | 
C[Si](C)(C)/C=C/c1c(C(=O)O)nc(-c2ccc(Cl)cc2)c(F)c1N [Compound 15, (E)-4-amino-6-(4-chlorophenyl)-5-fluoro-3-(2-(trimethylsilyl)vinyl)picolinic acid] |  |  |  |  |  |  | 90 | 80 | 90 | 70 | 80 | 90 | 100
CCc1nc(C(=O)O)c(/C=C/[Si](C)(C)C)c(N)c1F [Compound 16, (E)-4-amino-6-ethyl-5-fluoro-3-(2-(trimethylsilyl)vinyl)picolinic acid] | 10 | 0 | 0 | 60 | 5 | 20 |  |  |  |  |  |  | 
